{
  "source": "paper PMC8268238",
  "about": "“Seleno-Functionalization of Quercetin Improves the Non-Covalent Inhibition of M^pro and Its Antiviral Activity in Cells against SARS-CoV-2” (International Journal of Molecular Sciences, 2021)",
  "key": {"SARS-CoV-2 M^pro [1]": {"target": "T1, SARS-CoV-2 M^pro (Severe acute respiratory syndrome coronavirus 2, UniProt P0DTD1)", "experiment": "SARS-CoV-2 M^pro inhibition assay (FRET substrate)", "assay_type": "biochemical", "conditions": "0.2 μM enzyme, 20 μM substrate, pH 7, DMSO 2.5%", "experimental": "A continuous assay based on Förster resonance energy transfer (FRET) to measure in vitro the catalytic activity of M^pro was implemented by using the substrate (Dabcyl)KTSAVLQSGFRKME(Edans)-NH2 (Biosyntan GmbH, Berlin, Germany) The enzymatic reaction was initiated by adding substrate at 20 μM (final concentration) to the enzyme at 0.2 μM (final concentration) in a final volume of 100 μL. The reaction buffer was sodium phosphate 50 mM, pH 7, NaCl 150 mM, and DMSO 2.5%. Fluorescence emission was measured in a FluoDia T70 microplate reader (Photon Technology International, Birmingham, NJ, USA) for 20 min (excitation wavelength, 380 nm; emission wavelength, 500 nm). The initial slope of the time evolution curve of the fluorescence emission signal provided a direct quantification of the enzymatic activity.\nThe in vitro inhibition potency of the compounds against M^pro was assessed through the estimation of the inhibition constant, Ki, and the half-maximal inhibitory concentration, IC50, from experimental inhibition curves. Inhibition curves were obtained by measuring the enzyme activity (at fixed 0.2 μM enzyme concentration and fixed 20 μM substrate concentration) as a function of compound concentration (serial 2-fold dilution from 125 µM to 0 μM), maintaining the percentage of DMSO (2.5%) constant. The enzymatic activity was quantitated as the initial slope of the substrate fluorescence emission time evolution curve, and was plotted as a function of compound concentration. The ratio between the activity (slope) in the presence and absence of the compound provides the residual percentage of activity at a given compound concentration. Nonlinear regression analysis employing a simple inhibition model (considering inhibitor depletion due to enzyme binding) allowed us to estimate the apparent inhibition constant, Ki^app, for each compound according to Equation (1):(1) [EI]=1/2([I]T+[E]T+Kiapp−([I]T+[E]T+Kiapp)^2−4[E]T[I]T)[I]=[I]T−[EI]=1/2([I]T−[E]T−Kiapp+([I]T+[E]T+Kiapp)^2−4[E]T[I]T)v([I])/v([I]=0)=1−[EI]/[E]T=1/1+[I]/Kiapp, where [EI] is the concentration of the enzyme–inhibitor complex, [E]T and [I]T are the total concentrations of the enzyme and the inhibitor, Ki^app is the apparent inhibition constant for the inhibitors (quercetin and derivatives), [I] is the concentration of the free inhibitor, and v is the initial slope of the enzymatic activity trace at a given (free) inhibitor concentration [I] (or total inhibitor concentration [I]T). No approximation for the free inhibitor concentration (e.g., assuming to be equal to the total inhibitor concentration) was made, thus having general validity for any total enzyme and inhibitor concentration and any value of the inhibition constant (even for tight-binding inhibitors). In addition, if the inhibitor acts through a purely competitive mechanism, the previous equation can be substituted by Equation (2):(2) v([I])/v([I]=0)=1/1+[I]/Kiapp=1/1+[I]/Ki(1+[S]/Km), where Ki is the intrinsic (i.e., substrate concentration-independent) inhibition constant, Km is the Michaelis–Menten constant for the enzyme–substrate interaction, and [S] is the substrate concentration. Because Km and [S] are known, the intrinsic inhibition constant can be determined. Furthermore, approximating the free compound concentration by the total compound concentration and neglecting ligand depletion, the Ki^app in Equation (2) is equivalent to the IC50, as reported in Table 3. However, it should be emphasized that the IC50 is an assay-dependent inhibition potency index (among other parameters, it depends on the enzyme and substrate concentrations, as well as on the Km); thus, the intrinsic inhibition constant is a better inhibition potency index. Uncertainties have been reported as 95% profile likelihood asymmetric confidence intervals, as especially recommended for equilibrium constants (i.e., binding association/dissociation constants and inhibition constants)."}, "SARS-CoV-2 [2]": {"system": "SARS-CoV-2", "experiment": "Inhibition of SARS-CoV-2 replication in Vero cells by RT-qPCR", "assay_type": "cell-based"}, "SARS-CoV-2 M^pro [3]": {"target": "T1, SARS-CoV-2 M^pro", "experiment": "Reversibility test of M^pro interaction (SEC/dialysis, then activity and near-UV CD)", "assay_type": "biochemical", "conditions": "M^pro 24 μM incubated with compound 200 μM, 30 min, 25 °C, then SEC or dialysis"}, "Vero cells": {"system": "Vero cells", "experiment": "XTT cell viability assay", "assay_type": "cell-based, Cercopithecus aethiops", "conditions": "quercetin 500–100 µM; 2d 100–10 µM; Figure S2", "experimental": "Cell viability was evaluated using the XTT Cell Viability Assay kit (Biological Industries, Cromwell, CT, USA) according to the manufacturer’s protocol. Vero, A549ACE2+, CRFK, HRT-18, LLC-MK2, and HSF cells were cultured on 96-well plates. Cells were incubated with ACF for 24 h at 37 °C in an atmosphere containing 5% CO2. After incubation, the medium was discarded and 100 µL of fresh medium was added to each well. Then, 25 µL of the activated 2,3-bis-(2-methoxy-4-nitro-5-sulphenyl)-(2H)-tetrazolium-5-carboxanilide (XTT) solution was added and samples were incubated for 2 h at 37 °C. The absorbance (λ = 450 nm) was measured using a Spectra MAX 250 spectrophotometer (Molecular Devices, San Jose, CA, USA). The obtained results were normalized to the control samples, where cell viability was set to 100%."}, "SARS-CoV-2 [4]": {"system": "SARS-CoV-2", "conditions": "for Inhibition of the virus-caused cytopathic effect (CPE): 2 days"}, "[5]": {"system": "SARS-CoV-2 main protease (M^pro or 3CL^pro)", "conditions": "cited from earlier work"}, "SARS-CoV-2 [6]": {"system": "SARS-CoV-2", "design": "method as in PMID 32272481", "conditions": "cited from earlier work"}},
  "note": "pIC50, pKi: −log10 of the molar value. Read-outs that look alike come from different tables or passages of the source.",
  "data": [
    {"molecule": "Cc1ccc([Se]c2c(O)cc(O)c3c(=O)c(O)c(-c4ccc(O)c(O)c4)oc23)cc1", "note": "[2d, 2-(3,4-Dihydroxyphenyl)-3,5,7-trihydroxy-8-(p-tolylselanyl)-4H-chromen-4-one]", "values": [
      {"measurement": "pIC50", "setting": "SARS-CoV-2 M^pro [1]; equivalent to Ki^app", "value": 4.96},
      {"measurement": "pKi", "setting": "SARS-CoV-2 M^pro [1]; intrinsic inhibition constant", "value": 5.42},
      {"measurement": "pIC50", "setting": "SARS-CoV-2 [2]; Severe acute respiratory syndrome coronavirus 2, Vero, 48 h, read-out: IC50 of SARS-CoV-2 replication (RT-qPCR)", "value": 5.10},
      {"measurement": "logIC50 of SARS-CoV-2 replication (RT-qPCR)", "setting": "SARS-CoV-2 [2]; log of concentration in µM, Figure S4", "value": "0,8968"},
      {"measurement": "improvement of the antiviral potency versus quercetin", "setting": "SARS-CoV-2 [2]; ratio of antiviral IC50 values", "value": 24, "unit": "fold"},
      {"measurement": "reversibility of the interaction with M^pro", "setting": "SARS-CoV-2 M^pro [3]", "value": "reversible interaction"},
      {"measurement": "cytotoxicity on Vero cells (in words)", "setting": "Vero cells", "value": "none of the tested concentrations exhibited cytotoxicity"},
      {"measurement": "Inhibition of the virus-caused cytopathic effect (CPE)", "setting": "SARS-CoV-2 [4]; 10 µM, Vero cells", "value": "+"},
      {"measurement": "Inhibition of the virus-caused cytopathic effect (CPE)", "setting": "SARS-CoV-2 [4]; 25 µM, Vero cells", "value": "+"},
      {"measurement": "Inhibition of the virus-caused cytopathic effect (CPE)", "setting": "SARS-CoV-2 [4]; 50 µM, Vero cells", "value": "+"},
      {"measurement": "Inhibition of the virus-caused cytopathic effect (CPE)", "setting": "SARS-CoV-2 [4]; 75 µM, Vero cells", "value": "+"},
      {"measurement": "Inhibition of the virus-caused cytopathic effect (CPE)", "setting": "SARS-CoV-2 [4]; 100 µM, Vero cells", "value": "+"},
      {"measurement": "morphological changes of cells in the infection model", "setting": "SARS-CoV-2 [4]; 100 µM, in half of experiments", "value": "morphological changes were observed"},
      {"measurement": "maximal non-toxic concentration", "setting": "SARS-CoV-2 [4]; Vero cells, Figure S3", "value": 100, "unit": "µM"},
      {"measurement": "SARS-CoV-2-related CPE reduction (in words)", "setting": "SARS-CoV-2 [4]; tested at 100, 75, 50, 25 and 10 µM, judged at non-toxic concentrations", "value": "inhibited the development of the CPE"},
      {"measurement": "melting point", "value": "203 to 206", "unit": "°C"}
    ]},
    {"molecule": "C[C@@H]1O[C@@H](OC[C@H]2O[C@@H](Oc3c(-c4ccc(O)c(O)c4)oc4cc(O)cc(O)c4c3=O)[C@H](O)[C@@H](O)[C@@H]2O)[C@H](O)[C@H](O)[C@H]1O", "note": "[rutin]", "values": [
      {"measurement": "M^pro inhibition potency relative to quercetin, in words", "setting": "[5]", "value": "slightly lower potency"}
    ]},
    {"molecule": "O=c1c2ccccc2[se]n1-c1ccccc1", "note": "[ebselen]", "values": [
      {"measurement": "Antiviral activity observed in cell models, in words", "setting": "SARS-CoV-2 [6]", "value": "low micromolar levels"},
      {"measurement": "M^pro half-maximal inhibitory concentration (IC50), in words", "setting": "[5]", "value": "nanomolar range"}
    ]}
  ]
}
